ChEMBL document CHEMBL4387729, “Synthesis and structure-activity relationship of 4-alkoxy-thieno[2,3-b]pyridine derivatives as potent alkaline phosphatase enhancers for osteoporosis treatment” (Bioorg Med Chem Lett, 2019)
Values after ≈ are worked out from the molar mass of the structure shown. Active and inactive are the calls of the source. No cut-off for these calls is given here.

Legend:
[1] = Metabolic stability in rat liver microsomes assessed as parent compound remaining after 30 mins; type: ADME, Microsome; conditions: read-out: Stability
[2] = Solubility of the compound in pH 6.8 JP2 solution; type: physicochemical
[3] = molecular target: T1, Alkaline phosphatase, tissue-nonspecific isozyme (Mus musculus) (UniProt P09242); assay: Induction of alkaline phosphatase activity in mouse ST-2 cells after 4 days by spectrophotometric method; type: cell-based
T1 sequence (whole entry): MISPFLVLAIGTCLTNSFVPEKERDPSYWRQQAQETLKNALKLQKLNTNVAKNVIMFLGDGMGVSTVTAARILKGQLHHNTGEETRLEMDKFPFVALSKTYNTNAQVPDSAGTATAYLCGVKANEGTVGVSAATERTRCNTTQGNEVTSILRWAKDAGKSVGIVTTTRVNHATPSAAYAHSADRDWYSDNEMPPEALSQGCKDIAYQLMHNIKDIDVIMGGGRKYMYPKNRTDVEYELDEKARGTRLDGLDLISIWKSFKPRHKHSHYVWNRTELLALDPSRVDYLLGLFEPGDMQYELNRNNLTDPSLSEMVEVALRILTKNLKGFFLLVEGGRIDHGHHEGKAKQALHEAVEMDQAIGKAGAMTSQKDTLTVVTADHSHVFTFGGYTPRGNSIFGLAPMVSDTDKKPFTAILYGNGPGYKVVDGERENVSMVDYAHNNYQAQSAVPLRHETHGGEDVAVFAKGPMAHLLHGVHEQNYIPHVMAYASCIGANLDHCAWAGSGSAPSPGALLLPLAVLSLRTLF

[4] = Metabolic stability in human liver microsomes assessed as parent compound remaining after 30 mins; type: ADME, Microsome; conditions: read-out: Stability
CYP2C19 = CYP2C19 (Homo sapiens, UniProt P33261); assay: Inhibition of CYP2C19 (unknown origin) at 10 uM relative to control; type: ADME
CYP2D6 = CYP2D6 (Homo sapiens, UniProt P10635); assay: Inhibition of CYP2D6 (unknown origin) at 10 uM relative to control; type: ADME
CYP3A4 [5] = molecular target: T2, CYP3A4 (Homo sapiens, UniProt P08684); assay: in vitro; conditions: human liver microsomes
Description: Time dependent inhibition of CYP3A4 in human liver microsomes assessed as enzyme residual activity at 100 uM relative to control

CYP3A4 [6] = molecular target: T2, CYP3A4; assay: in vitro
CYP2C9 = CYP2C9 (Homo sapiens, UniProt P11712); assay: Inhibition of CYP2C9 (unknown origin) at 10 uM relative to control; type: ADME
CYP1A2 = molecular target: T3, CYP1A2 (Homo sapiens, UniProt P05177); assay: Inhibition of CYP1A2 (unknown origin) at 10 uM relative to control; type: ADME
T3 sequence (P05177 whole entry): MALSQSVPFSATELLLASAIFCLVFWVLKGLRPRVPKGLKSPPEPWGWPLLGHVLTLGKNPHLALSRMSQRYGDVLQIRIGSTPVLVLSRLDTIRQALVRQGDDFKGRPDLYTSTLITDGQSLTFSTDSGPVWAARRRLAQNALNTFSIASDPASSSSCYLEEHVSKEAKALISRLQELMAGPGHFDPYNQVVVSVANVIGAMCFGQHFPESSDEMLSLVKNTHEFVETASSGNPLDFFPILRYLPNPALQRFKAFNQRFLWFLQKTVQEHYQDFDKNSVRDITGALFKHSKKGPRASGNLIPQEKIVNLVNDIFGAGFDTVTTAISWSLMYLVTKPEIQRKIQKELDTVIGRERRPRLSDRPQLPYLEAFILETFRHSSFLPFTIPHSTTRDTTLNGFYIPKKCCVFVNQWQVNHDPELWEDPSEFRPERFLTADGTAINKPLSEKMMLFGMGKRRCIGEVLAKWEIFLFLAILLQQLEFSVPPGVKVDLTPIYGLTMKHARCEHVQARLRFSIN

[7] = Cmax in F344 rat at 60 mg/kg, po; type: ADME, organism-based; design: dose 60 mg/kg, route oral; conditions: in vivo
[8] = AUC (0 to 8 hrs) in F344 rat at 60 mg/kg, po; type: ADME, organism-based; design: time < 8 hr, dose 60 mg/kg, route oral; conditions: in vivo
[9] = AUC (0 to 8 hrs) in F344 rat at 30 mg/kg, po; type: ADME, organism-based; design: time < 8 hr, dose 30 mg/kg, route oral; conditions: in vivo
Rattus norvegicus [10] = assay: Bone anabolic activity in ovariectomized F344 rat assessed as increase in areal bone mineral density in total femur at 30 mg/kg/day, po administered for 5 weeks measured post-last dose by dual energy X-ray absorptiometry; type: functional, organism-based
[11] = Cmax in F344 rat at 30 mg/kg, po; type: ADME, organism-based; design: dose 30 mg/kg, route oral; conditions: in vivo
Rattus norvegicus [12] = assay: Bone anabolic activity in ovariectomized F344 rat assessed as increase in areal bone mineral density in distal femur at 30 mg/kg/day, po administered for 5 weeks measured post-last dose by dual energy X-ray absorptiometry; type: functional, organism-based
Rattus norvegicus [13] = assay: Bone anabolic activity in ovariectomized F344 rat assessed as increase in areal bone mineral density in proximal femur at 30 mg/kg/day, po administered for 5 weeks measured post-last dose by dual energy X-ray absorptiometry; type: functional, organism-based

Sequence of CYP2C9 (P11712 whole entry): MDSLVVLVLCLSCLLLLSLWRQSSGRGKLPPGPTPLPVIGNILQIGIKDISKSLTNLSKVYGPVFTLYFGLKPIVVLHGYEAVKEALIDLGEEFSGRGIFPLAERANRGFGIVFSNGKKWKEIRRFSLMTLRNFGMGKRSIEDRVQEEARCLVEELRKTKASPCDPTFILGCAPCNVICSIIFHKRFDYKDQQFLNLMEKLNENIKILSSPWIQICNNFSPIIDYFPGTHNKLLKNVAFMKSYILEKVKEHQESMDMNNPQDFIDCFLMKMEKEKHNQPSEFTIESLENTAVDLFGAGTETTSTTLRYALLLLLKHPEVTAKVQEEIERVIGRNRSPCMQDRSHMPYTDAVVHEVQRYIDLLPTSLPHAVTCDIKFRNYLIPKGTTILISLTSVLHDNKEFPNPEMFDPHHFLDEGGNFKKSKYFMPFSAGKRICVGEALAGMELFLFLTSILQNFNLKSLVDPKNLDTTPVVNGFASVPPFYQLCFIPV
T2 sequence (P08684 whole entry): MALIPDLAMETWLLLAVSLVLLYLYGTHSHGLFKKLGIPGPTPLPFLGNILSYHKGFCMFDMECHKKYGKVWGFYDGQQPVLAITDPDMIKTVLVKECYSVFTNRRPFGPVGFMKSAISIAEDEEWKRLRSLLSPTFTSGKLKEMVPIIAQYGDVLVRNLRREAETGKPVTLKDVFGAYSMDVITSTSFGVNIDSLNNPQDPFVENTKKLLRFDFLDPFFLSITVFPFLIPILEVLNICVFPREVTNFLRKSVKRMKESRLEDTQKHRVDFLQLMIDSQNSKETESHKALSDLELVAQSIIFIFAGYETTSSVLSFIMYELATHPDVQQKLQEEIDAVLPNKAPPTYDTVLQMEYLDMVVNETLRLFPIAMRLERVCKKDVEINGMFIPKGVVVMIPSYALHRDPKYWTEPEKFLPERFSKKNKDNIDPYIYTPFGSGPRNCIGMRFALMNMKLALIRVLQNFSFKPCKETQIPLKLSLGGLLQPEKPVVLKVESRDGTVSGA
Sequence of CYP2D6 (P10635 whole entry): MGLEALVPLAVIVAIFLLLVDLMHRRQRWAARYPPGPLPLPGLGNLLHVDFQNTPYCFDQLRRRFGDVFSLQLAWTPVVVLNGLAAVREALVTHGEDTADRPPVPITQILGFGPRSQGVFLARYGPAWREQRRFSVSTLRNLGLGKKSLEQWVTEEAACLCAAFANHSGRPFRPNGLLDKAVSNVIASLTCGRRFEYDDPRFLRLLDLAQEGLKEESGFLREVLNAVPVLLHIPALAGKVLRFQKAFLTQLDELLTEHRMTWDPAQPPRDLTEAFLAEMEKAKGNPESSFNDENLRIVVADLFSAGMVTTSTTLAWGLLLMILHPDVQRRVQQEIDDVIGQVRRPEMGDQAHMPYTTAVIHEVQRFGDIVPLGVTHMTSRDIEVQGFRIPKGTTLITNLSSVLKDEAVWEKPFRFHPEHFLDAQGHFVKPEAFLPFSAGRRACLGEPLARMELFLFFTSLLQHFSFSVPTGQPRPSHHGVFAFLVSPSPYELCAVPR
Sequence of CYP2C19 (P33261 whole entry): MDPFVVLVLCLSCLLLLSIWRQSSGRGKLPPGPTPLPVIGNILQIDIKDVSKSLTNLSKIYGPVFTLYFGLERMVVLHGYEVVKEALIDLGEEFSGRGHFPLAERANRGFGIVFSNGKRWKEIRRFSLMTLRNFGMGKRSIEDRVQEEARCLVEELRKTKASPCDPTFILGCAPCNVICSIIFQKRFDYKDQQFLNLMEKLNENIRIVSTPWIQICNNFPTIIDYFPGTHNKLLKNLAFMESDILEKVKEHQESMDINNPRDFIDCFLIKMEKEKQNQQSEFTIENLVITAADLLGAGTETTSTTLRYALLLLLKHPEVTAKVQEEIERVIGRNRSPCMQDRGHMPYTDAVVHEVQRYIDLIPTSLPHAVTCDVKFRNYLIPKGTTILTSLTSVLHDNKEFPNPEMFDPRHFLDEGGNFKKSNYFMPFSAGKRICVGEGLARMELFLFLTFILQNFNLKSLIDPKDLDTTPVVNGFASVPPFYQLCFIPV

Row | SMILES | remaining at 0.5 h [1] [%] | solubility [2] [µg/mL] | EC200 [3] [µg/mL] | remaining at 0.5 h [4] [%] | inhibition at 10 µM (CYP2C19) [%] | inhibition at 10 µM (CYP2D6) [%] | inhibition at 10 µM (CYP3A4 [6]) [%] | inhibition at 10 µM (CYP2C9) [%] | inhibition at 10 µM (CYP1A2) [%] | also measured
1 | NC(=O)c1sc2nccc(OC3CCCCC3)c2c1N | 2 | 28 (≈ 96.1 µM) | 0.14 | 1 |  |  |  |  |  | 
2 | NC(=O)c1sc2nccc(Oc3ccc(Cl)cc3)c2c1N |  |  | 0.021 |  |  |  |  |  |  | 
3 | CCc1ccc(Oc2ccnc3sc(C(N)=O)c(N)c23)cc1 |  |  | 0.036 |  |  |  |  |  |  | 
4 | COc1ccccc1Oc1ccnc2sc(C(N)=O)c(N)c12 |  |  | 0.114 |  |  |  |  |  |  | 
5 | COC(=O)c1ccc(Oc2ccnc3sc(C(N)=O)c(N)c23)cc1 |  |  | 0.09 |  |  |  |  |  |  | 
6 | CN(C)CCc1ccc(Oc2ccnc3sc(C(N)=O)c(N)c23)cc1 |  |  | 0.058 |  |  |  |  |  |  | 
7 | NC(=O)c1sc2nccc(Oc3ccc(Cl)cc3Cl)c2c1N |  |  | 0.014 |  |  |  |  |  |  | 
8 | Cc1cc(Oc2ccc(CCCC(=O)N(C)C)cc2Cl)c2c(N)c(C(N)=O)sc2n1 | 11 | 0.2 (≈ 0.447 µM) | 0.0004 | 25 | 11 | 15 | 40 | 30 | 6 | activity at 100 µM (CYP3A4 [5]): 25%
9 | Cc1cc(Oc2ccc(CCCC(=O)N(C)C)cc2)c2c(N)c(C(N)=O)sc2n1 |  |  | 0.0011 |  |  |  |  |  |  | 
10 | CN1CCC(Oc2ccnc3sc(C(N)=O)c(N)c23)CC1 |  |  | > 1 |  |  |  |  |  |  | 
11 | CC[C@H]1CC[C@H](Oc2ccnc3sc(C(N)=O)c(N)c23)CC1 |  |  | > 0.3 |  |  |  |  |  |  | 
12 | NC(=O)c1sc2nccc(Oc3ccccc3)c2c1N | 36 | 6.6 (≈ 23.1 µM) | 0.046 | 11 | 15 | 5 | 9 | 13 | 41 | activity at 100 µM (CYP3A4 [5]): 93%
13 | CN(C)C(=O)CCc1ccc(Oc2ccnc3sc(C(N)=O)c(N)c23)cc1 |  |  | 0.01 |  |  |  |  |  |  | 
14 | CC(C)Oc1ccnc2sc(C(N)=O)c(N)c12 |  |  | 0.72 |  |  |  |  |  |  | 
15 | C[C@H]1CCCC[C@@H]1Oc1ccnc2sc(C(N)=O)c(N)c12 (relative stereo) | 7 | 42 (≈ 138 µM) | 0.045 | 20 |  |  |  |  |  | 
16 | CN(C)c1ccnc2sc(C(N)=O)c(N)c12 |  |  | 0.17 |  | 0 | 1 | 0 | 0 | 61 | 
17 | NC(=O)c1sc2nccc(Oc3ccc(CCO)cc3)c2c1N | 75 | 39 (≈ 118 µM) | 0.025 | 93 | 8 | 3 | 0 | 7 | 1 | Cmax [7]: 1540 ng/mL; activity at 100 µM (CYP3A4 [5]): 88%; AUC(0-t) at 8 h [8]: 3580 ng·h/mL
18 | NC(=O)c1sc2nccc(OC3CCOCC3)c2c1N | 85 | 180 (≈ 614 µM) | 0.25 | 92 | 1 | 0 | 2 | 1 | 11 | AUC(0-t) at 8 h [9]: 29800 ng·h/mL; Activity (Rattus norvegicus [10]): Active; activity at 100 µM (CYP3A4 [5]): 89%; Cmax [11]: 10400 ng/mL; Activity (Rattus norvegicus [12]): Active; Activity (Rattus norvegicus [13]): Active
19 | Cc1cc(Oc2ccc(CCCC(=O)N(C)C)cc2F)c2c(N)c(C(N)=O)sc2n1 | 12 | 0.3 (≈ 0.697 µM) | 0.0005 | 60 | 10 | 10 | 20 | 17 | 10 | Cmax [7]: 96 ng/mL; activity at 100 µM (CYP3A4 [5]): 47%; AUC(0-t) at 8 h [8]: 591 ng·h/mL
